Experiments:
Settings in all cases: 250 g/ha, evaluated after 13 days, five-point scale
[1] = tested on: Amaranthus retoflexus (AMARE); test: Post-emergence herbicidal glasshouse test; type: in vivo
[2] = tested on: Amaranthus retoflexus (AMARE); test: Pre-emergence herbicidal glasshouse test; type: in vivo
[3] = tested on: Ipomoea hederacea (IPOHE); test: Post-emergence herbicidal glasshouse test; type: in vivo
[4] = tested on: Ipomoea hederacea (IPOHE); test: Pre-emergence herbicidal glasshouse test; type: in vivo
[5] = tested on: Echinochloa crus-galli (ECHCG); test: Post-emergence herbicidal glasshouse test; type: in vivo
AMAPA [6] = test: Pre-emergence herbicidal glasshouse test; type: in vivo, Amaranthus tuberculatus
Setaria faberi (SETFA) [7] = test: Pre-emergence herbicidal glasshouse test; type: in vivo
AMAPA [8] = test: Post-emergence herbicidal glasshouse test; type: in vivo, Amaranthus tuberculatus
Setaria faberi (SETFA) [9] = test: Post-emergence herbicidal glasshouse test; type: in vivo
[10] = tested on: Echinochloa crus-galli (ECHCG); test: Pre-emergence herbicidal glasshouse test; type: in vivo

Clc1cnc(Oc2cccc3ccncc23)nc1 [Compound 1.022]
1 (1=0-20%): percentage damage caused to the plant, AMARE [1] | percentage damage caused to the plant, AMARE [2] | percentage damage caused to the plant, IPOHE [3] | percentage damage caused to the plant, IPOHE [4] | percentage damage caused to the plant, ECHCG [5] | percentage damage caused to the plant, AMAPA (AMAPA [6]) | percentage damage caused to the plant, SETFA (Setaria faberi (SETFA) [7]) | percentage damage caused to the plant, SETFA (Setaria faberi (SETFA) [9]) | percentage damage caused to the plant, ECHCG [10]
2 (2=21-40%): percentage damage caused to the plant, AMAPA (AMAPA [8])

Cc1ccc(Oc2ncc(Cl)cn2)c2c(C)nc(C(F)(F)F)nc12 [Compound 1.073]
1 (1=0-20%): percentage damage caused to the plant, AMARE [1] | percentage damage caused to the plant, AMARE [2] | percentage damage caused to the plant, IPOHE [3] | percentage damage caused to the plant, IPOHE [4] | percentage damage caused to the plant, ECHCG [5] | percentage damage caused to the plant, AMAPA (AMAPA [6]) | percentage damage caused to the plant, SETFA (Setaria faberi (SETFA) [7]) | percentage damage caused to the plant, AMAPA (AMAPA [8]) | percentage damage caused to the plant, SETFA (Setaria faberi (SETFA) [9]) | percentage damage caused to the plant, ECHCG [10]

Cc1nc(C(F)(F)Cl)nc2cccc(Oc3ncc(Cl)cn3)c12 [Compound 1.069]
2 (2=21-40%): percentage damage caused to the plant, IPOHE [3] | percentage damage caused to the plant, ECHCG [5] | percentage damage caused to the plant, SETFA (Setaria faberi (SETFA) [9]) | percentage damage caused to the plant, ECHCG [10]
3 (3=41-60%): percentage damage caused to the plant, AMARE [1] | percentage damage caused to the plant, AMAPA (AMAPA [8])
1 (1=0-20%): percentage damage caused to the plant, IPOHE [4]
5 (5=81-100%): percentage damage caused to the plant, AMARE [2] | percentage damage caused to the plant, AMAPA (AMAPA [6]) | percentage damage caused to the plant, SETFA (Setaria faberi (SETFA) [7])

FC(F)c1ncc2c(Oc3ncc(Cl)cn3)cccc2n1 [Compound 1.019]
2 (2=21-40%): percentage damage caused to the plant, ECHCG [5]
3 (3=41-60%): percentage damage caused to the plant, AMAPA (AMAPA [8]) | percentage damage caused to the plant, SETFA (Setaria faberi (SETFA) [9])
5 (5=81-100%): percentage damage caused to the plant, AMARE [2] | percentage damage caused to the plant, AMAPA (AMAPA [6]) | percentage damage caused to the plant, SETFA (Setaria faberi (SETFA) [7]) | percentage damage caused to the plant, ECHCG [10]
4 (4=61-80%): percentage damage caused to the plant, AMARE [1] | percentage damage caused to the plant, IPOHE [3] | percentage damage caused to the plant, IPOHE [4]

FC(F)(Cl)c1ncc2c(Oc3ncc(Cl)cn3)ccc(Cl)c2n1 [Compound 1.044]
2 (2=21-40%): percentage damage caused to the plant, IPOHE [3] | percentage damage caused to the plant, ECHCG [10]
1 (1=0-20%): percentage damage caused to the plant, IPOHE [4] | percentage damage caused to the plant, ECHCG [5]
3 (3=41-60%): percentage damage caused to the plant, AMARE [1] | percentage damage caused to the plant, AMARE [2] | percentage damage caused to the plant, AMAPA (AMAPA [8]) | percentage damage caused to the plant, SETFA (Setaria faberi (SETFA) [9])
5 (5=81-100%): percentage damage caused to the plant, AMAPA (AMAPA [6]) | percentage damage caused to the plant, SETFA (Setaria faberi (SETFA) [7])

Fc1cc(Cl)cnc1Oc1cccc2nc(C(F)(F)F)ncc12 [Compound 1.006]
1 (1=0-20%): percentage damage caused to the plant, AMARE [2] | percentage damage caused to the plant, IPOHE [4] | percentage damage caused to the plant, ECHCG [5] | percentage damage caused to the plant, AMAPA (AMAPA [6]) | percentage damage caused to the plant, SETFA (Setaria faberi (SETFA) [7]) | percentage damage caused to the plant, AMAPA (AMAPA [8]) | percentage damage caused to the plant, SETFA (Setaria faberi (SETFA) [9]) | percentage damage caused to the plant, ECHCG [10]
2 (2=21-40%): percentage damage caused to the plant, AMARE [1] | percentage damage caused to the plant, IPOHE [3]

Cc1nc(C(F)(F)F)nc2c(Br)ccc(Oc3ncc(Cl)cn3)c12 [Compound 1.072]
1 (1=0-20%): percentage damage caused to the plant, AMARE [1] | percentage damage caused to the plant, AMARE [2] | percentage damage caused to the plant, IPOHE [3] | percentage damage caused to the plant, IPOHE [4] | percentage damage caused to the plant, ECHCG [5] | percentage damage caused to the plant, SETFA (Setaria faberi (SETFA) [7]) | percentage damage caused to the plant, AMAPA (AMAPA [8]) | percentage damage caused to the plant, SETFA (Setaria faberi (SETFA) [9]) | percentage damage caused to the plant, ECHCG [10]
2 (2=21-40%): percentage damage caused to the plant, AMAPA (AMAPA [6])

FC(F)Oc1cnc(Oc2cccc3nc(C(F)(F)F)ncc23)nc1 [Compound 1.009]
1 (1=0-20%): percentage damage caused to the plant, AMARE [1] | percentage damage caused to the plant, AMARE [2] | percentage damage caused to the plant, IPOHE [3] | percentage damage caused to the plant, IPOHE [4] | percentage damage caused to the plant, ECHCG [5] | percentage damage caused to the plant, SETFA (Setaria faberi (SETFA) [7]) | percentage damage caused to the plant, AMAPA (AMAPA [8]) | percentage damage caused to the plant, SETFA (Setaria faberi (SETFA) [9]) | percentage damage caused to the plant, ECHCG [10]
2 (2=21-40%): percentage damage caused to the plant, AMAPA (AMAPA [6])

From US20250179052A1, “PYRIMIDINYL-OXY-QUINOLINE BASED HERBICIDAL COMPOUNDS” (SYNGENTA CROP PROTECTION AG, priority 2022, published 2025)
